Experimental data taken from patent US20210230179A1, “THIENO[2,3-B]PYRIDINE DERIVATIVES AS EPAC INHIBITORS AND THEIR PHARMACEUTICAL USES” (INSTITUT NATIONAL DE LA SANTE ET DE LA RECHERCHE MEDICALE …, priority 2018, published 2021).

Key:
[1] = molecular target: T1, Epac2 (Homo sapiens, UniProt Q8WZA2); assay: Epac GEF activity assay (b-GDP dissociation from recombinant Rap1), Epac2; format: biochemical
T1 sequence (Q8WZA2 1-867 isoform Q8WZA2-3): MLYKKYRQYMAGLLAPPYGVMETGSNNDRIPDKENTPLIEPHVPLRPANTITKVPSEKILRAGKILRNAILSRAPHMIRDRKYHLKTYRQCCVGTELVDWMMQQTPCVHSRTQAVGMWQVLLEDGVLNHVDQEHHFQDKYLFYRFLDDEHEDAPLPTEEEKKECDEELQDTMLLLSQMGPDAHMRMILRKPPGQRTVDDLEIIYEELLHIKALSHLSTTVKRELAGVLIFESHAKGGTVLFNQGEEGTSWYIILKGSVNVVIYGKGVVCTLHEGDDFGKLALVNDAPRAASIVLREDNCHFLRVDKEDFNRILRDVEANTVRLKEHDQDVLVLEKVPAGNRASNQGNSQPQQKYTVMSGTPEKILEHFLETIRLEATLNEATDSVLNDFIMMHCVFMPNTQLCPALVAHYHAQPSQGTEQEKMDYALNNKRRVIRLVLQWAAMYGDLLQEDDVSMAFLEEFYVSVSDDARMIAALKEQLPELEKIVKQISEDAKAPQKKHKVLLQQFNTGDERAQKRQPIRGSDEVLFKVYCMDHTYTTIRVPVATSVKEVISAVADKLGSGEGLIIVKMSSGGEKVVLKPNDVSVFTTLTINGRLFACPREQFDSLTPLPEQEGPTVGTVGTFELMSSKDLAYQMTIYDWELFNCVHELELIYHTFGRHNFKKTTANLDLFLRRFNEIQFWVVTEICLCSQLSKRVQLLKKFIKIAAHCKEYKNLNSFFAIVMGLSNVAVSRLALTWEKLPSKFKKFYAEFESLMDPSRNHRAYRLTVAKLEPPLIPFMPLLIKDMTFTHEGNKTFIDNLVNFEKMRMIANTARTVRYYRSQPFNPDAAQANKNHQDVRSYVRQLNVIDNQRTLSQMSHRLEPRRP
Text: FIGS. 4-8. […] Variations of relative fluorescence units (RFU) were studied as a function of time and fitted to single exponentials.

[2] = test system: type I PKA holoenzyme; assay: type I PKA holoenzyme activation; format: biochemical; conditions: 30 μM, presence and absence of 10 μM cAMP
[3] = test system: neonatal rat ventricular myocytes; assay: cytotoxicity in cultured cells; format: cell-based; conditions: various types of cultured cells including neonatal rat ventricular myocytes
Text: Neonatal rat ventricular myocytes (NRVM) isolation: Neonatal rats of 1-2 days old were euthanized by decapitation. The heart was excised and the atria were removed.

[4] = molecular target: T2, Epac2B (Homo sapiens, UniProt Q8WZA2); assay: Rap1-GTP in HEK293 cells transfected with Epac2B; format: cell-based; conditions: 20 μM, 30 min preincubation; S-220 50 μM, 10 min
T2 construct: expressed in transfected cells; host or cells: HEK293
T2 sequence (Q8WZA2 1-867 isoform Q8WZA2-3): T1 sequence (Q8WZA2 1-867 isoform Q8WZA2-3)
Experimental: (§1) FIGS. 9-13. Amounts of Rap1-GTP (n=5 in each group, mean±S.E.M) were determined in HEK293 cells transfected with Epac1 (FIGS. 9-11), Epac2A (FIG. 12) or Epac2B (FIG. 13). Cells were preincubated or not with AM-001 (FIGS. 9, 12, and 13), AM-002 (FIG. 10) or AM-003 (FIG. 11) (20 μM, 30 min) and were then treated or not with 8-CPT-AM (10 μM for Epac1 activation and 20 μM for Epac2A activation) or S-220 (50 μM for Epac2B activation) for 10 min. ESI-05 was used as positive control of Epac2A inhibition. Representative immunoblots are shown. […], *[…], ***p<0.001, ****p<0.0001, versus indicated values, one way ANOVA, Bonferroni comparison test.
(§2) Human Embryonic Kidney cells line (HEK293): HEK293 cells were maintained is in minimal essential medium with FBS (10%) and penicillin-streptomycin (1%). All media, sera, and antibiotics used in cell culture were purchased from Invitrogen.
The human Epac1/Epac2 expression vector was a gift from Dr J. L. Bos. Cells were transfected using Lipofectamine 2000 (Invitrogen) according to the manufacturer's instructions. HEK293 cells were maintained in MEM with FBS (Foetal Bovine Serum; 10%) and penicillin-streptomycin (1%). All media, sera and antibiotics used in cell culture were purchased from Invitrogen (Cergy Pontoise, France). […]

[5] = molecular target: T3, Epac1 (Homo sapiens, UniProt O95398); assay: Rap1-GTP in HEK293 cells transfected with Epac1; format: cell-based; design: expressed in transfected cells; host or cells: HEK293; conditions: 20 μM, 30 min preincubation; 8-CPT-AM 10 μM, 10 min
T3 sequence (O95398 1-923): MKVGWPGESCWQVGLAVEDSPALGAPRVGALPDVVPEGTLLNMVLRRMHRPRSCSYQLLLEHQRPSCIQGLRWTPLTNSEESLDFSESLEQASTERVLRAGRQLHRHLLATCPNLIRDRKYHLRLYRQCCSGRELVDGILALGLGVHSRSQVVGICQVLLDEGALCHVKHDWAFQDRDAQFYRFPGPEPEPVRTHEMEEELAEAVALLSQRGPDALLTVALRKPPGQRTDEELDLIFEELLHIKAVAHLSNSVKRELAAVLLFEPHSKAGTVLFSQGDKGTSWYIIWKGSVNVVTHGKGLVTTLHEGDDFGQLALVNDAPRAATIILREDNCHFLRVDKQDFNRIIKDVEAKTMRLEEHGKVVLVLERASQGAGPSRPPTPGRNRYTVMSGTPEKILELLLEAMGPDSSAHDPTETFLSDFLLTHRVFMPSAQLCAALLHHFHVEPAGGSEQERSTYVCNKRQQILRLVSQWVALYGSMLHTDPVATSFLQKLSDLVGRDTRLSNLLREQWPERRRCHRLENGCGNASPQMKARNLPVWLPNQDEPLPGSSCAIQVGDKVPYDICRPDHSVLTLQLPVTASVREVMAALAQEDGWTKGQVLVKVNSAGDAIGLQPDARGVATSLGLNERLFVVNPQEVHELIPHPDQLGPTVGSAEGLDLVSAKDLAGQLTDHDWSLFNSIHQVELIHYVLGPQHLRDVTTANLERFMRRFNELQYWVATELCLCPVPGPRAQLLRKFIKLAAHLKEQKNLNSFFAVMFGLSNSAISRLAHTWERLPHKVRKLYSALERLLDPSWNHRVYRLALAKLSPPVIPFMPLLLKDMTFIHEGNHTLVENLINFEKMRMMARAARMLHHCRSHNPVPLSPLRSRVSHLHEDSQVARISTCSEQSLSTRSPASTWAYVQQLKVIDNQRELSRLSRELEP
Experimental: as §1, §2
The human Epac1/Epac2 expression vector was a gift from Dr J. L. Bos. Cells were transfected using Lipofectamine 2000 (Invitrogen) according to the manufacturer's instructions. HEK293 cells were maintained in MEM with FBS (Foetal Bovine Serum; 10%) and penicillin-streptomycin (1%). All media, sera and antibiotics used in cell culture were purchased from Invitrogen (Cergy Pontoise, France). Transient transfection experiments were performed with Lipofectamine 2000 (Invitrogen Life Technologies) in the presence of various amounts of plasmid constructs according to the manufacturer's instructions.
This cell line is commonly used for the evaluation of Epac pharmacological modulators on the cellular signaling of ectopically expressed Epac1 and Epac2 isoforms. […] Next, the inventors investigated the effect of 8-CPT-AM on the two Epac2 splice variants, Epac2A and Epac2B (FIGS. 12-13).

Structure (SMILES): Nc1c(C(=O)Nc2ccc(F)cc2)sc2nc(-c3cccs3)cc(-c3ccccc3)c12 [AM-001, 3-amino-N-(4-fluorophenyl)-4-phenyl-6-(thiophen-2-yl)thieno[2,3-b]pyridine-2-carboxamide]
- effect on Epac2 GEF activity ([1]; 30 μM Sp-8-CPT, 20 μM inhibitor): no inhibitory effect
- IC50 ([1]; Sp-8-CPT at its EC50 for the isoform): > 1000 µM
- IC50 ([1]; saturating concentration of Sp-8-CPT): > 1000 µM
- effect on type I PKA holoenzyme activation [2]: did not influence
- cytotoxicity [3]: no apparent cytotoxicity
- inhibition of the increase in Rap1-GTP induced by S-220 [4]: ineffective
- inhibition of Epac1-induced Rap1 activation [5]: prevented Epac1-induced Rap1 activation
